Experiment: molar heat capacity at constant pressure; xn = mol fraction of the nth substance listed
Details: 101.3 kPa, Liquid, Small sample (50 mg) DSC

CCC(C)(C)O [2-methylbutan-2-ol] + CCCCCCC
molar heat capacity at constant pressure [J/K/mol]
Details	309.15 K	310.16 K	311.14 K	312.15 K	313.16 K	314.14 K	315.15 K	316.16 K	317.14 K	318.15 K
x1 = 0.0061	–	229.11	229.41	229.87	230.16	230.54	231.04	231.41	231.74	232.22
x1 = 0.0249	–	232.84	233.01	233.27	233.44	233.76	234.1	234.24	234.45	234.79
x1 = 0.0494	–	238.76	238.96	239.19	239.44	239.64	239.85	240.04	240.17	240.39
x1 = 0.1	–	246.57	246.82	247.28	247.62	247.94	248.26	248.61	248.85	249.22
x1 = 0.1547	–	251.57	252.06	252.56	253.04	253.52	254.01	254.44	254.85	255.3
x1 = 0.1999	–	254.63	255.2	255.82	256.43	257.01	257.6	258.06	258.58	259.15
x1 = 0.2993	–	259.26	259.96	260.68	261.51	262.2	262.9	263.57	264.25	264.95
x1 = 0.4051	–	261.91	262.71	263.58	264.53	265.3	266.17	266.93	267.74	–
x1 = 0.4986	262.32	263.33	264.23	265.2	266.22	267.11	268.03	268.88	269.71	–
x1 = 0.5981	262.83	263.88	264.84	265.84	266.9	267.83	268.84	269.72	270.72	–
x1 = 0.7015	262.76	263.9	264.89	265.94	267.08	268.09	269.07	270.07	271.01	–
x1 = 0.8023	261.98	263.1	264.11	265.15	266.27	267.27	268.34	269.26	270.34	–
x1 = 0.9139	260.52	261.67	262.65	263.76	264.91	265.99	267.02	268	269.05	–
x1 = 0.9609	259.67	260.83	261.81	262.89	264	265.01	266.09	267.03	268.07	–

Source: the NIST ThermoML archive (doi:10.1016/j.jct.2008.10.010)
